From patent US8697691B2, “Alkyl 3-((2-amidoethyl)amino)-8-azabicyclo[3.2.1]octane-8-carboxylate analogs as selective M1 agonists and methods of making and using same” (Vanderbilt University, priority 2009, dated 2014) come the findings set out here.

Read-outs that look alike come from different tables or passages of the source.

The target of this test is T1, human M1 receptor (Homo sapiens, UniProt P11229).
T1 construct: host or cells: CHO-K1
T1 sequence (P11229 1-460): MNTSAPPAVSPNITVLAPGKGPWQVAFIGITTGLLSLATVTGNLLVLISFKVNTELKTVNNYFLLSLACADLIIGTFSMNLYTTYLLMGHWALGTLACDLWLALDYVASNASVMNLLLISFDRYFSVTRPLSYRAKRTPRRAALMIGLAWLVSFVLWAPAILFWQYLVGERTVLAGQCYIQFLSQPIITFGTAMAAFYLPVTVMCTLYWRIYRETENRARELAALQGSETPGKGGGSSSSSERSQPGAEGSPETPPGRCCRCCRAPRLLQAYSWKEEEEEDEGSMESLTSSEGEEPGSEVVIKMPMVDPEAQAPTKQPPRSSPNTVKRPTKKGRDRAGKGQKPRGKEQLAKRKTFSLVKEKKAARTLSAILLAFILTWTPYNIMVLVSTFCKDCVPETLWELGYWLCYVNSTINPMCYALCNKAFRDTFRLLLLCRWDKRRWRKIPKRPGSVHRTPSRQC
The experiment in a line: Calcium mobilization assay, CHO-K1 cells stably expressing hM1 (high throughput, FDSS 6000). It is filed as cell-based. The settings on record: for Emax: CHO-K1, read-out: Efficacy (% Max ACh). From the text: Chinese hamster ovary (CHO-K1) cells stably expressing rat (r)M1 were purchased from the American Type Culture Collection and cultured according to their indicated protocol. CHO cells stably expressing human (h)M2, hM3, and hM5 were described previously (Levey et al., 1991); hM1 and hM4 cDNAs were purchased from Missouri S&T cDNA Resource; rM4 cDNA was provided by T. I. Bonner (National Institutes of Health, Bethesda, Md.). hM1, hM4, and rM4 cDNAs were used to stably transfect CHO-K1 cells purchased from the American Type Culture Collection using Lipofectamine2000. To make stable hM2, hM4 and rM4 cell lines for use in calcium mobilization assays, these cells also were stably transfected with a chimeric G-protein (Gqi5) (provided by B. R. Conklin, University of California, San Francisco) using Lipofectamine 2000. rM1, hM3, and hM5 cells were grown in Ham's F-12 medium containing 10% heat-inactivated fetal bovine serum (FBS), 20 mM HEPES, and 50 μg/mL G418 sulfate. hM2-Gqi5 and hM4-Gqi5 cells were grown in the same medium also containing 500 μg/mL Hygromycin B. Stable rM4-Gqi5 cells were grown in DMEM containing 10% heat-inactivated FBS, 20 mM HEPES, 400 μg/mL G418 sulfate, and 500 μg/mL Hygromycin B. The rat M1 Y381A orthosteric mutant receptor cDNA was generated using the Quik-Change site-directed mutagenesis kit (Stratagene) and verified by sequencing. CHO-K1 cells were stably transfected with this cDNA using Lipofectamine2000 and screened for expression based on calcium mobilization in response to the allosteric M1 agonist N-desmethylclozapine.
For high throughput measurement of agonist-evoked increases in intracellular calcium, CHO-K1 cells stably expressing muscarinic receptors were plated in growth medium lacking G418 and hygromycin at 15,000 cells/20 μL/well (hM1, hM2-Gqi5, hM3, hM4-Gq15, and hM5) in Greiner 384-well black-walled, tissue culture (TC)-treated, clear-bottom plates (VWR). Cells were incubated overnight at 37° C. and 5% CO2. The next day, cells were washed using an ELX 405 (BioTek) with three washes (50 μL) of assay buffer then aspirated to 15 μL. Next, 5 μL of 8 μM Fluo-4/acetoxymethyl ester (Invitrogen, Carlsbad, Calif.) prepared as a 2.3 mM stock in DMSO and mixed in a 1:1 ratio with 10% (w/v) Pluronic F-127 and diluted in assay buffer was added to the wells and the cell plates were incubated for 45 min at 37° C. and 5% CO2. Dye was removed by washing with the ELX 405 (three 50 μL washes of assay buffer) then aspirated to 20 μL. Agonist and compound master plates were formatted in an 11 point CRC format (1:3 dilutions) in 100% DMSO with a starting concentration of 10 mM using the BRAVO liquid handler (Agilent). Test compound CRCs were then transferred to daughter plates ([…]) using the Echo acoustic plate reformatter (Labcyte, Sunnyvale, Calif.) and then diluted into assay buffer (40 μL) to a 2× stock using a Thermo Fisher Combi (Thermo Fisher Scientific, Waltham, Mass.). Calcium flux was measured using the Functional Drug Screening System (FDSS) 6000 (Hamamatsu Corporation, Tokyo, Japan) as an increase in the fluorescent static ratio. 20 μL of Agonist Compounds were applied to cells using the automated system of the FDSS 6000 at 4 s into the 300 s protocol and the data were collected at 1 Hz. Concentration-response curves were generated using a four-parameter logistical equation in XLfit curve fitting software (IDBS, Bridgewater, N.J.) for Excel (Microsoft, Redmond, Wash.) or Prism (GraphPad Software, Inc., San Diego, Calif.).

Setting [1] is: human M1, agonist-evoked calcium mobilization in CHO-K1 cells, read-out: Potency (EC50).

`CCOC(=O)N1[C@@H]2CC[C@H]1C[C@H](NCCNC(=O)N1CCCCC1)C2` [Example 28, ethyl 3((3-exo)-(2-(piperidine-1-carboxamido)ethyl)amino)-8-azabicyclo[3.2.1]octane-8-carboxylate]: the Emax was found to be 46%. For the same compound, under setting [1], the half-maximal effective concentration (EC50) was determined as 700 nM. The matching figures for `CCOC(=O)N1[C@@H]2CC[C@H]1C[C@H](NCCNC(=O)N1CCOCC1)C2` [Example 38, ethyl 3-((3-exo)-(2-(morpholine-4-carboxamido)ethyl)-amino)-8-azabicyclo[3.2.1]octane-8-carboxylate]: 37% and 3600 nM. In the case of `CCOC(=O)N1[C@@H]2CC[C@H]1C[C@H](NCCNC(=O)c1ccccc1C)C2` [Example 31, ethyl 3-((3-exo)-(2-(2-methylbenzamido)ethyl)-amino)-8-azabicyclo[3.2.1]octane-8-carboxylate], the EC50 was 2500 nM and the Emax was 38%. Regarding `CCOC(=O)N1[C@@H]2CC[C@H]1C[C@H](NCCNC(=O)c1cc(F)cc(F)c1)C2` [Example 36, ethyl 3-((3-exo)-(2-(3,5-difluorobenzamido)ethyl)-amino)-8-azabicyclo[3.2.1]octane-8-carboxylate], the Emax came out at 37%. The EC50 under setting [1] amounted to 2600 nM. On to `CCOC(=O)N1C2CCC1CC(NCCNC(=O)c1cccc(OC)c1)C2` (stereo not drawn) [Example 41, ethyl 3-((3-exo)-(2-(3-methoxybenzamido)ethyl)-amino)-8-azabicyclo[3.2.1]octane-8-carboxylate], for which the Emax is 19%. On to `CC(C)OC(=O)N1C2CCC1CC(NCCNC(=O)c1ccccc1)C2` (stereo not drawn) [Example 37, isopropyl 3-((3-exo)-(2-benzamidoethyl)amino)-8-azabicyclo[3.2.1]octane-8-carboxylate], for which the Emax stood at 7%. As to `CCOC(=O)N1[C@@H]2CC[C@H]1C[C@H](NCCNC(=O)c1ccccc1Cl)C2` [Example 42], the Emax stood at 25%.

In the case of `CCOC(=O)N1[C@@H]2CC[C@H]1C[C@H](NCCNC(=O)c1ccc(F)cc1)C2` [Example 33, ethyl 3-((3-exo)-(2-(4-fluorobenzamido)ethyl)-amino)-8-azabicyclo[3.2.1]octane-8-carboxylate], the Emax came out at 48%. Moreover, the EC50 under setting [1] worked out at 1700 nM. Turning to `COC(=O)N1C2CCC1CC(NCCNC(=O)c1ccccc1)C2` (stereo not drawn) [Example 29, methyl 3-((3-exo)-(2-benzamidoethyl)amino)-8-azabicyclo[3.2.1]octane-8-carboxylate], the Emax was found to be 7%. On to `C=CCOC(=O)N1[C@@H]2CC[C@H]1C[C@H](NCCNC(=O)c1ccccc1)C2` [Example 30, allyl 3-((3-exo)-(2-benzamidoethyl)amino)-8-azabicyclo[3.2.1]octane-8-carboxylate], for which the Emax stood at 29%. `CCOC(=O)N1[C@@H]2CC[C@H]1C[C@H](NCCNC(=O)c1ccc(F)c(F)c1)C2` [Example 39, ethyl 3-((3-exo)-(2-(3,4-difluorobenzamido)ethyl)-amino)-8-azabicyclo[3.2.1]octane-8-carboxylate]: the Emax turned out to be 46%. For the same compound, the EC50 under setting [1] turned out to be 1400 nM.

For `CCOC(=O)N1[C@@H]2CC[C@H]1C[C@H](NCCNC(=O)C1CCCCC1)C2` [Example 34, ethyl 3-((3-exo)-(2-(cyclohexanecarboxamido)-ethyl)amino)-8-azabicyclo[3.2.1]octane-8-carboxylate], the Emax was determined as 25%. Further, the EC50 under setting [1] came to 3200 nM.

Regarding `CCOC(=O)N1C2CCC1CC(NCCNC(=O)N1[C@H](C)CCC[C@@H]1C)C2` (stereo partly drawn) [Example 32], the Emax came to 26%. For `CCOC(=O)N1[C@@H]2CC[C@H]1C[C@H](NCCNC(=O)c1cccc(Cl)c1)C2` [Example 35, ethyl 3-((3-exo)-(2-(3-chlorobenzamido)ethyl)-amino)-8-azabicyclo[3.2.1]octane-8-carboxylate], the Emax was 57%. Moreover, the EC50 under setting [1] worked out at 490 nM.

On to `CCOC(=O)N1[C@@H]2CC[C@H]1C[C@H](NCCNC(=O)c1cccs1)C2` [Example 40, ethyl 3-((3-exo)-(2-(thiophene-2-carboxamido)ethyl)-amino)-8-azabicyclo[3.2.1]octane-8-carboxylate], for which the EC50 came to 2100 nM and the Emax was 15%.
